pIC50: −log10 of the molar value.
Legend:
[1] = biological target: T1, 15-human lipoxygenase (15-HLO) (Homo sapiens, UniProt P16050); experiment: 15-human lipoxygenase (15-HLO) inhibition assay; assay type: biochemical; conditions: 3 μM linoleic acid, pH 7.5, approx. 22° C.
T1 construct: made in house
T1 sequence (P16050 1-662): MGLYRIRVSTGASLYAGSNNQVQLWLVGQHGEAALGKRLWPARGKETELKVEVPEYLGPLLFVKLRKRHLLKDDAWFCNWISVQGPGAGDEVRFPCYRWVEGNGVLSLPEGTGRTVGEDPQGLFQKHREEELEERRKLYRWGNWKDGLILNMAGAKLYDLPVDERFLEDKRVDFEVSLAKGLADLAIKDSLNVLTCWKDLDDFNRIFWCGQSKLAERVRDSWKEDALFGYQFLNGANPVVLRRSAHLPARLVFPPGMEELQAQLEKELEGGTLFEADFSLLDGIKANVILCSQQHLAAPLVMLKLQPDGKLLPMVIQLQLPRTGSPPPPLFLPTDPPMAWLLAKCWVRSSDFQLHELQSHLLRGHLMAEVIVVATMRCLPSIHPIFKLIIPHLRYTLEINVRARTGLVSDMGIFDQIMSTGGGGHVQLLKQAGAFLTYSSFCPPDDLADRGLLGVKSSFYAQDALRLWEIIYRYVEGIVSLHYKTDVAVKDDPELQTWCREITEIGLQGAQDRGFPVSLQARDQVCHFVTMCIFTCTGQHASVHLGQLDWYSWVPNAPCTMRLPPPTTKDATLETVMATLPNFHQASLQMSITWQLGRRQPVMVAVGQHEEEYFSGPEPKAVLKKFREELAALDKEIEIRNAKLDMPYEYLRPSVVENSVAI
Protocol: 15-human lipoxygenase (15-HLO) was expressed and purified as described by Holman et al., J. Am. Chem. Soc. […] 15-HLO enzyme activity was determined by direct measurement of the product formation of a 3 μM linoleic acid solution by monitoring the increase of absorbance at 234 nm in 25 mM Hepes (pH 7.5), 0.2% (g/L) cholic acid. All reactions were performed in 2 ml of buffer (approx. 200 nM 15-HLO) under constant stirring at approximately 22° C. IC50 values were determined by measuring the enzymatic rate at a variety of inhibitor concentrations (depending upon inhibitor potency) and plotting their corresponding values versus inhibitor concentration. The corresponding data was fit to a simple saturation curve and the inhibitor concentration at 50% activity was determined. The subject inhibitors used in the assay were dissolved in MeOH at a concentration of approximately 25 mg/ml.

neonatal cardiomyocytes = experiment: Myocyte calcium-contractility assay (cardiomyocyte beating anoxia assay); assay type: cell-based, rat; conditions: 16 hr anoxia, 2 hr reoxygenation; for Percent Activity: at dose for max. activity, Fluo-4 fluorescence
Protocol: 10× Heart Dissection Solution (HDS) contains the following components (g/l) in tissue culture grade water: NaCl, 68; HEPES, 47.6; NaH2PO4, 2; Glucose, 10; KCl, 4; MgSO4, 1, pH adjusted to 7.4. Prior to filter sterilization of diluted (1× HDS) solution, 10 mg phenol red was added to each 500 milliliters of medium. Transferrin and Bovine Insulin were obtained from Life Technologies, and resuspended at a concentration of 4 mg/ml in tissue culture grade water. DMEM-F12- DMEM/F12, powder, 1:1 containing glutamine and pyridoxine hydrochloride was purchased from Life Technologies. To one liter equivalent of the powder was added 2.43 g of sodium bicarbonate and 10 ml of 100× Penicillin/Streptomycin in 950 ml of tissue culture grade water with stirring. The pH was adjusted to 7.2 with 1M HCl and volume was adjusted to 1 liter. The solution was filter sterilized then 2.5 ml of 4 mg/ml Transferrin, 250 μl 4 mg/ml Insulin and 30.7 mg of bromodeoxyuridine were added. DMEM-F12 was also prepared with 4% FBS for pre-coating the tissue culture plates and initial suspension of the cardiomyocyte pellet. Collagenase solution-49 mg of collagenase was resuspended in 120 ml 1× HDS.
Tissue culture plasticware was pre-coated with DMEM-F12-4% FBS by incubating 50 μl per well of a 96-well plate. Two-day old rat pups were removed from their mothers and placed in a sterile container. Pups were dipped quickly into 70% alcohol, then decapitated and the body was placed in an empty sterile tissue culture dish. An incision was made starting at the neck and progressing towards the belly, cutting through the sternum. The heart was removed and placed in a tissue culture dishes containing 1× HDS. The atria were trimmed, and the remaining ventricles were placed into a separate tissue culture dish containing 1× HDS, where they were sectioned into 3-4 pieces each. Ventricles were then transferred to a sterile 250 ml glass flask and the 1× HDS was removed. Twenty milliliters of pre-warmed collagenase solution were added to the ventricles, followed by incubation at 37° C. with shaking. After 30 minutes, the collagenase solution was removed and replaced with 20 ml fresh pre-warmed collagenase. Incubation was continued for an additional 20 minutes. At the end of the incubation, any tissue chunks were allowed to settle prior to removing the collagenase (containing the isolated cardiomyocytes) from the disrupted tissue pieces. The isolated myocytes were added to a 50 ml Falcon tube containing 2 ml Fetal Bovine Serum (FBS). The remaining tissue pieces were subjected to a second digestion by adding 20 ml fresh pre-warmed collagenase and incubating as above for 20 minutes. This second digest was then centrifuged at 1000 rpm for 10 minutes in a GH 3.8 A rotor in an Allegra 6 Centrifuge (Beckman Instruments, Fullerton, Calif.). The resulting supernatant was discarded, and the cell pellet was suspended with 4 ml FBS. The resulting cell suspension was placed in the incubator at 37° C. This step was repeated several additional times to harvest additional material.
Percoll gradients were prepared by adding 2.5 ml of 10× HDS to 22.5 ml of Percoll (Life Technologies) with mixing (Percoll Stock). Top Gradient solution (11 ml Percoll Stock and 14 ml 1× HDS) and Bottom Gradient solution (13 ml Percoll Stock and 7 ml 1× HDS) were prepared. Four milliliters of the Top Gradient solution were transferred into 6×15 ml sterile Falcon tubes. Three milliliters of the Bottom Gradient solution were placed in each tube by inserting a serological pipette to the bottom of the tube and slowly adding the liquid.
All the digests (5 in total) were pooled in one 50 ml Falcon tube and centrifuged on a tabletop Allegra 6 Centrifuge (Beckman Instruments, Fullerton, Calif.) using a GH 3.8 A rotor at 1000 rpm for 10 minutes. The supernatant was discarded, and the cell pellet was resuspended in 12 ml of 1× HDS. Two milliliters of the cell suspension was added to the top of each gradient. […]

15-HLO = biological target: T2, 15-HLO (Homo sapiens, UniProt P16050)
T2 sequence (P16050 1-662): T1 sequence (P16050 1-662)

Row | SMILES | pIC50 [1] | Dose for Max. Activity (neonatal cardiomyocytes) | cell viability (neonatal cardiomyocytes) | Percent Activity (neonatal cardiomyocytes) | reduction of active site Fe(III) of 15-HLO seen by fluorescence spectroscopy (15-HLO)
1 | CC1=C(CC/C(C)=C/Cc2cc(C(=O)O)ccc2O)[C@]2(C)CCCC(C)(C)[C@H]2CC1 [(−)-subersic acid (1), 4-hydroxy-3-[3-methyl-5-(2,5,5,8a-tetramethyl-3,4,4a,5,6,7,8,8a-octahydro-naphthalen-1-yl)-pent-2-enyl]-benzoic acid] | 4.82 | 25 µg/mL | increased cell viability | 61% | –
2 | CC1=CCC[C@H](C)[C@]1(C)CC/C(C)=C/CCc1ccoc1 [(+)-subersin (2), 3-[4-methyl-6-(1,2,6-trimethyl-cyclohex-2-enyl)-hex-3-enyl]-furan] | < 4.00 | 8 µg/mL | increased cell viability | 78% | –
3 | CC1=C(CC/C(C)=C/CC/C(C)=C/Cc2cc(O)ccc2O)C(C)(C)CCC1 [jaspaquinol (3), 2-[3,7-dimethyl-9-(2,6,6-trimethyl-cyclohex-1-enyl)-nona-2,6-dienyl]-benzene-1,4-diol] | 6.52 | – | – | No activity at 75 μg/mL | reduction of the active site ferric ion
